The values that follow come from patent US10689377B2 (Mirati Therapeutics, Inc., priority 2017, dated 2020).

In the assay the target is KRas G12C (Homo sapiens, UniProt P01116, G12C). The experiment in a line: Cellular inhibition of KRas G12C measured by Phospho-ERK in NCI-H358 cells. To be noted: pERK(Thr202/Tyr204) normalized with GAPDH, NCI-H358 cells, 3 hours; read-out: IC50. Type of assay: cell-based. Put shortly: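 NCI-H358 cells treated 3 h with compound (0.5% DMSO final), then fixed and methanol-permeabilised. In-cell immunofluorescence measured pERK(Thr202/Tyr204) normalised to GAPDH as percent of DMSO control. IC50 from a 4-parameter dose-response fit.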
Chain of KRas G12C (P01116 1-188 isoform P01116-2 G12C): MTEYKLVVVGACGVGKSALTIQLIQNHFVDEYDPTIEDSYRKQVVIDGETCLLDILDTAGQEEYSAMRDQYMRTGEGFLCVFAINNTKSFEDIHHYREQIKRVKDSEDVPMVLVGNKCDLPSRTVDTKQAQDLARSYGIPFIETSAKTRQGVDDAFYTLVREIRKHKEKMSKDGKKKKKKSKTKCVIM
As to `C=CC(=O)N1CCN(c2nc(OCCCN3CCCCC3)nc3c2CCN(c2cc(O)cc4ccccc24)C3)CC1` [Example 38, 1-(4-(7-(3-hydroxynaphthalen-1-yl)-2-(3-(piperidin-1-yl)propoxy)-5,6,7,8-tetrahydropyrido[3,4-d]pyrimidin-4-yl)piperazin-1-yl)prop-2-en-1-one], the IC50 lay in the range of 0.1 to 1000 nM. For the compound `C=CC(=O)N1CCN(c2nc(OCCN(C)C)nc3c2CCN(c2ccccc2C(F)(F)F)C3)CC1CC#N` (stereo not shown) [Example 296, 2-[4-[2-[2-(dimethylamino)ethoxy]-7-[2-(trifluoromethyl)phenyl]-6,8-dihydro-5H-pyrido[3,4-d]pyrimidin-4-yl]-1-prop-2-enoyl-piperazin-2-yl]acetonitrile], the concentration for half-maximal inhibition (IC50) lay within 0.1 to 1000 nM. With `C=CC(=O)N1CCN(c2nc(O[C@H](CC)CN(C)C)nc3c2CCN(c2cc(O)cc4ccccc24)C3)CC1` [Example 60, (R)-1-(4-(2-((1-(dimethylamino)butan-2-yl)oxy)-7-(3-hydroxynaphthalen-1-yl)-5,6,7,8-tetrahydropyrido[3,4-d]pyrimidin-4-yl)piperazin-1-yl)prop-2-en-1-one], the concentration for half-maximal inhibition (IC50) is > 1000 nM. On to `C=CC(=O)N1CCN(c2nc(OC[C@@H]3CCCN3C)nc3c2CCN(c2cccc4ccccc24)C3)CC1COC` (stereo partly drawn) [Example 429, 1-(2-(methoxymethyl)-4-(2-(((S)-1-methylpyrrolidin-2-yl)methoxy)-7-(naphthalen-1-yl)-5,6,7,8-tetrahydropyrido[3,4-d]pyrimidin-4-yl)piperazin-1-yl)prop-2-en-1-one], for which the IC50 is > 1000 nM. For `C=CC(=O)N1CCN(c2nc(OCCN3CCCCC3)nc3c2CCN(c2cc(O)cc4ccccc24)C3)CC1` [Example 52, 1-[4-[7-(3-hydroxy-1-naphthyl)-2-[2-(1-piperidyl)ethoxy]-6,8-dihydro-5H-pyrido[3,4-d]pyrimidin-4-yl]piperazin-1-yl]prop-2-en-1-one], the IC50 lay in the range of 0.1 to 1000 nM.

As to `C=CC(=O)N1CCN(c2nc(OC[C@@H]3CCCN3C)nc3c2CCN(c2ccccc2C(F)(F)F)C3)C[C@@H]1CC#N` [Example 379, 2-((S)-1-acryloyl-4-(2-(((S)-1-methylpyrrolidin-2-yl)methoxy)-7-(2-(trifluoromethyl)phenyl)-5,6,7,8-tetrahydropyrido[3,4-d]pyrimidin-4-yl)piperazin-2-yl)acetonitrile], the IC50 lay in the range of 0.1 to 1000 nM. Consider `Cc1cccc2cccc(N3CCc4c(nc(OC[C@@H]5CCCN5C)nc4N4CCN(C(=O)/C=C/C(=O)N(C)C)[C@@H](CC#N)C4)C3)c12` [Example 499, (E)-4-((S)-2-(cyanomethyl)-4-(7-(8-methylnaphthalen-1-yl)-2-(((S)-1-methylpyrrolidin-2-yl)methoxy)-5,6,7,8-tetrahydropyrido[3,4-d]pyrimidin-4-yl)piperazin-1-yl)-N,N-dimethyl-4-oxobut-2-enamide], for which the IC50 was 0.1 to 1000 nM. Turning to `C=CC(=O)N1CCN(c2nc(OCCN(CC)CC)nc3c2CCN(c2ccccc2C(F)(F)F)C3)CC1CC#N` (stereo not shown) [Example 300, 2-[4-[2-[2-(diethylamino)ethoxy]-7-[2-(trifluoromethyl)phenyl]-6,8-dihydro-5H-pyrido[3,4-d]pyrimidin-4-yl]-1-prop-2-enoyl-piperazin-2-yl]acetonitrile], the 50% inhibitory concentration (IC50) is 0.1 to 1000 nM. On to `C=CC(=O)N1CCN(c2nc(OC[C@H]3CCC(C)(C)N3)nc3c2CCN(c2cc(O)cc4ccccc24)C3)CC1` [Example 174, (R)-1-(4-(2-((5,5-dimethylpyrrolidin-2-yl)methoxy)-7-(3-hydroxynaphthalen-1-yl)-5,6,7,8-tetrahydropyrido[3,4-d]pyrimidin-4-yl)piperazin-1-yl)prop-2-en-1-one], for which the half-inhibitory concentration (IC50) was > 1000 nM. As to `C=CC(=O)N1CCN(c2nc(OCCN3CCCC[C@@H]3C)nc3c2CCN(c2cc(O)cc4ccccc24)C3)CC1` [Example 88, (S)-1-(4-(7-(3-hydroxynaphthalen-1-yl)-2-(2-(2-methylpiperidin-1-yl)ethoxy)-5,6,7,8-tetrahydropyrido[3,4-d]pyrimidin-4-yl)piperazin-1-yl)prop-2-en-1-one], the IC50 fell in the range of 0.1 to 1000 nM. For the compound `C=CC(=O)N1CCN(c2nc(OC[C@@H]3CCCN3C)nc3c2CCN(c2cccc4cccc(Br)c24)C3)C[C@@H]1CC#N` [Example 464, 2-((S)-1-acryloyl-4-(7-(8-bromonaphthalen-1-yl)-2-(((S)-1-methylpyrrolidin-2-yl)methoxy)-5,6,7,8-tetrahydropyrido[3,4-d]pyrimidin-4-yl)piperazin-2-yl)acetonitrile], the IC50 lay in the range of 0.1 to 1000 nM. Take `C=CC(=O)N1CCN(c2nc(OCCCN3C[C@@H]4C[C@H]3CO4)nc3c2CCN(c2cccc4ccccc24)C3)CC1CC#N` (stereo partly drawn) [Example 154, 2-[4-[7-(1-naphthyl)-2-[3-[(1S,4S)-2-oxa-5-azabicyclo[2.2.1]heptan-5-yl]propoxy]-6,8-dihydro-5H-pyrido[3,4-d]pyrimidin-4-yl]-1-prop-2-enoyl-piperazin-2-yl] acetonitrile]: the IC50 lay in the range of 0.1 to 1000 nM. Turning to `C=CC(=O)N1CCN(c2nc(OC[C@@H]3CCCN3C)nc3c2CCN(c2cccc4ccc(OC)cc24)C3)CC1CC#N` (stereo partly drawn) [Example 288, 2-[4-[7-(7-methoxy-1-naphthyl)-2-[[(2S)-1-methylpyrrolidin-2-yl]methoxy]-6,8-dihydro-5H-pyrido[3,4-d]pyrimidin-4-yl]-1-prop-2-enoyl-piperazin-2-yl]acetonitrile], the IC50 is > 1000 nM.

Turning to `C=CC(=O)N1CCN(c2nc(N3CCCC(N(C)C)C3)nc3c2CCN(c2cccc4ccccc24)C3)C[C@@H]1CC#N` (stereo partly drawn) [Example 405, 2-((2S)-1-acryloyl-4-(2-(3-(dimethylamino)piperidin-1-yl)-7-(naphthalen-1-yl)-5,6,7,8-tetrahydropyrido[3,4-d]pyrimidin-4-yl)piperazin-2-yl)acetonitrile], the concentration for half-maximal inhibition (IC50) was 0.1 to 1000 nM. With `C=CC(=O)N1CCN(c2nc(OC[C@@H]3CCCN3C(C)C)nc3c2CCN(c2cc(O)cc4ccccc24)C3)CC1` [Example 145, 1-[4-[7-(3-hydroxy-1-naphthyl)-2-[[(2S)-1-isopropylpyrrolidin-2-yl]methoxy]-6,8-dihydro-5H-pyrido[3,4-d]pyrimidin-4-yl]piperazin-1-yl]prop-2-en-1-one], the IC50 was in the range of 0.1 to 1000 nM. Regarding `C=CC(=O)N1CCN(c2nc(OCCCN3CCN(C(C)=O)CC3)nc3c2CCN(c2cc(O)cc4ccccc24)C3)CC1` [Example 135, 1-[4-[2-[3-(4-acetylpiperazin-1-yl)propoxy]-7-(3-hydroxy-1-naphthyl)-6,8-dihydro-5H-pyrido[3,4-d]pyrimidin-4-yl]piperazin-1-yl]prop-2-en-1-one], the IC50 is 0.1 to 1000 nM.

On to `C=CC(=O)N1CCN(c2nc(OC[C@@H]3CCCN3C)nc3c2CCN(c2cccc(F)c2C(F)(F)F)C3)CC1CC#N` (stereo partly shown) [Example 230], for which the 50% inhibitory concentration (IC50) fell in the range of 0.1 to 1000 nM. As for `C=CC(=O)N1CCN(c2nc(O[C@@H](C)CN(C)C)nc3c2CCN(c2cc(O)cc4ccccc24)C3)CC1` [Example 8, (S)-1-(4-(2-((1-(dimethylamino)propan-2-yl)oxy)-7-(3-hydroxynaphthalen-1-yl)-5,6,7,8-tetrahydropyrido[3,4-d]pyrimidin-4-yl)piperazin-1-yl)prop-2-en-1-one], the figure is > 1000 nM; as for `C=CC(=O)N1CCN(c2nc(O[C@H](C)CN3CCCC3)nc3c2CCN(c2cc(O)cc4ccccc24)C3)CC1` [Example 120, (R)-1-(4-(7-(3-hydroxynaphthalen-1-yl)-2-((1-(pyrrolidin-1-yl)propan-2-yl)oxy)-5,6,7,8-tetrahydropyrido[3,4-d]pyrimidin-4-yl)piperazin-1-yl)prop-2-en-1-one], 0.1 to 1000 nM.

As for `CN1CCC[C@H]1COc1nc2c(c(N3CCN(C(=O)C#CCO)[C@@H](CC#N)C3)n1)CCN(c1cccc3cccc(Cl)c13)C2` [Example 483, 2-[(2S)-4-[7-(8-chloro-1-naphthyl)-2-[[(2S)-1-methylpyrrolidin-2-yl]methoxy]-6,8-dihydro-5H-pyrido[3,4-d]pyrimidin-4-yl]-1-(4-hydroxybut-2-ynoyl)piperazin-2-yl]acetonitrile], the IC50 is 0.1 to 1000 nM. As for `C=CC(=O)N1CCN(c2nc(OC[C@@H]3CCCN3C)nc3c2CCN(c2cccc(C)c2C(F)(F)F)C3)C[C@@H]1CC#N` [Example 364, 2-[(2S)-4-[2-[[(2S)-1-methylpyrrolidin-2-yl]methoxy]-7-[3-methyl-2-(trifluoromethyl)phenyl]-6,8-dihydro-5H-pyrido[3,4-d]pyrimidin-4-yl]-1-prop-2-enoyl-piperazin-2-yl]acetonitrile], the figure is 0.1 to 1000 nM; as for `C=CC(=O)N1C[C@H](C)N(c2nc(OC[C@@H]3CCCN3C)nc3c2CCN(c2cc(O)cc4ccccc24)C3)C[C@H]1C` [Example 336, 1-[(2R,5S)-4-[7-(3-hydroxy-1-naphthyl)-2-[[(2S)-1-methylpyrrolidin-2-yl]methoxy]-6,8-dihydro-5H-pyrido[3,4-d]pyrimidin-4-yl]-2,5-dimethyl-piperazin-1-yl]prop-2-en-1-one], 0.1 to 1000 nM; as for `C=CC(=O)N1CCN(c2nc(OC[C@@H]3CCCN3C)nc3c2CCN(c2ccc(F)cc2C(F)(F)F)C3)CC1CC#N` (stereo partly shown) [Example 276], 0.1 to 1000 nM. For the compound `C=CC(=O)N1CCN(c2nc(OCC(C)(C)N(C)C)nc3c2CCN(c2cccc4ccccc24)C3)CC1CC#N` (stereo not shown) [Example 397, 2-(1-acryloyl-4-(2-(2-(dimethylamino)-2-methylpropoxy)-7-(naphthalen-1-yl)-5,6,7,8-tetrahydropyrido[3,4-d]pyrimidin-4-yl)piperazin-2-yl)acetonitrile], the half-maximal inhibitory concentration (IC50) was 0.1 to 1000 nM. As to `C=CC(=O)N1CCN(c2nc(OCCN3CCC[C@@H](OC)C3)nc3c2CCN(c2cc(O)cc4ccccc24)C3)CC1` [Example 99, (R)-1-(4-(7-(3-hydroxynaphthalen-1-yl)-2-(2-(3-methoxypiperidin-1-yl)ethoxy)-5,6,7,8-tetrahydropyrido[3,4-d]pyrimidin-4-yl)piperazin-1-yl)prop-2-en-1-one], the IC50 is > 1000 nM.

In general, IC50 refers to the point on the concentration scale where inhibition reaches its midpoint.
